This note sets out measurements from article PMC3231940, “Disposition, metabolism and mass balance of [^14C]apremilast following oral administration” (Xenobiotica; the Fate of Foreign Compounds in Biological …, 2011).

Where “and” joins values, the source holds several entries; their conditions need not be identical. Equal entries are not always repeated.

For orientation: Tmax means the time from dosing to the highest level.

The data set is described as follows: Metabolite profiling by HPLC radiochromatography in plasma, urine and faeces. The class given is in vivo, human. To be noted: for % of dose excreted, faeces: faeces collected up to 96-h post-dose; for Plasma (% AUC relative to TRA); share of circulating radioactivity: AUC0-t (unchanged drug or metabolite)/AUC0-48 (TRA) * 100%; for Plasma Cmax: plasma radioactivity concentrations and radiochromatography; for % of dose excreted, urine: urine collected up to 48-h post-dose. The protocol: Individual plasma samples collected from all subjects at 0.5, 1, 2.5, 8, 24, 36 and 48 h post-dose were analysed for metabolite profiling. A pooled sample (equal volume from 0.5,1,2.5,8 and 24 h) from subject 1 was also used for metabolite profiling. Three volumes of acetonitrile were added to each sample, followed by mixing and centrifu-gation. The supernatant was removed and the pellet was washed twice with acetonitrile. The combined superna-tants were evaporated to dryness under a stream of nitrogen. The residues were re-suspended in acetonitrile: 1% formic acid in water (1:1), assayed for extraction recovery and analysed for metabolite profiling.
For each subject, urine samples were pooled using an equal percentage by volume of the 0-4, 4-8, 8-12 and 12-24-h samples. The 24-48-h urine sample from each subject and a pool of the 0-168-h urine samples from subject 1 were also analysed for metabolite profiling. Samples were mixed and centrifuged prior to the supernatants being transferred to fresh tubes for metabolite profiling analysis.
Faecal homogenates for metabolite profiling were pooled using an equal percentage by weight to generate two pools (0-48 h and 48-96 h) for each subject. An additional pool (0-168 h) was prepared using the samples collected from subject 1. An aliquot (approximately 6 g) of each pool was extracted with three volumes of acetonitrile; samples were mixed and centrifuged. The supernatant was removed and the pellets were extracted twice with an additional 12 mL of acetonitrile each time. The combined supernatants were evaporated to dryness under a stream of nitrogen and the residue was re-suspended in a small volume (approximately 400 μL) of acetonitrile: 1% formic acid in water (1:1). Samples were assayed for extraction recovery prior to metabolite profiling.
HPLC analysis for metabolite profiling was performed using a Shimadzu LC-10ADVP (Shimadzu Corp., Columbia, MD) or a Waters 2695 Alliance Separation Module (Waters Corp., Milford, MA) with the autosampler set to an ambient temperature of approximately 22°C. ASPD-10A VPUV-Vis Detector or a Waters 996 Photodiode array detector set to 254 nm was used to detect UV absorbance. [^14C]Apremilast and metabolites were separated using a Phenomenex Luna C 18(2) column (150 × 4.6 mm, 3 μm; Phenomenex, Torrance, CA) equipped with a RP-18 guard column (15×3.2 mm, 7 μm) or using an ACE 3 C18 column (150 × 4.6 mm, 3 μm; Advanced Chromatography Technologies, Aberdeen, Scotland) equipped with an ACE 3 guard column (10×3mm, 3 μm). The mobile phases used were 0.4% formic acid in water; pH 3.2 with ammonium hydroxide (mobile phase A) and acetonitrile (mobile phase B). The column temperature was 30°C and the flow rate was 0.7mL/min. The linear gradient was delivered as follows: 0-5 min to 100% A; 5-20 min to 85% A; 20-30 min hold at 85% A; 30-50 min to 65% A; 50-60 min to 60% A; 60-70 min to 50% A; 70-75 min to 0% A; hold at 0% A until 80 min; return to initial conditions over 2 min.
Radioactivity profiles for excreta were determined by radiochromatography using liquid chromatography-accurate radioisotope counting stop-flow system (LC-ARC; AIM Research Company, Wilmington, DE). Radioactivity was detected using a β-Ram Radioflow detector (IN/US Systems, Brandon, FL) equipped with a 1300-μL liquid cell. Liquid scintillation cocktail and column eluate were mixed at a ratio of 2.5:1. Radioactive peaks were quantified using LC-ARC data handling software. Plasma radioactivity profiles were determined by collecting the column eluate into 96-well Deepwell LumaPlates at a rate of 0.25 min/fraction. The plates were dried and the radioactivity in each well determined using a PerkinElmer TopCount NXT Microplate Scintillation Counter. HPLC radiochromatograms were reconstructed using LC-ARC data handling software.
Pharmacokinetic data were generated by non-compartmental analysis of plasma or whole blood versus time profiles using WinNonlin (version 4.1, Enterprise Edition). […]

Setting [1] is: single oral 20-mg dose, mean ± SD.
The mark [2] stands for this setting: radiochromatography, single oral 20-mg dose, mean ± SD.

Turning to `CCOc1cc([C@@H](CS(C)(=O)=O)N2C(=O)c3cccc(N)c3C2=O)ccc1O` [Metabolite M4, N-deacetylated, O-desmethyl apremilast], the “% of dose excreted, faeces” value was 2.4 % of dose.
As to `CCOc1cc([C@@H](CS(C)(=O)=O)NC(=O)c2cccc(NC(C)=O)c2C(=O)O)ccc1O` [Metabolite M9], the “% of dose excreted, faeces” value was 8 % of dose and 7.7 % of dose. Moreover, for the setting “urine plus faeces”, the “Share of the excreted radioactivity / excreted dose” value is on record as greater than 4%.
In the case of `CCOc1cc([C@@H](CS(C)(=O)=O)N2C(=O)c3cccc(NC(=O)CO)c3C2=O)ccc1O` [Metabolite M10, acetamide hydroxylated, O-desmethyl apremilast], the “% of dose excreted, faeces” value is 1.3 % of dose.
With `COc1ccc([C@@H](CS(C)(=O)=O)N2C(=O)c3cccc(NC(C)=O)c3C2=O)cc1OC1OC(C(=O)O)C(O)C(O)C1O` (some centres unmarked) [Metabolite M13], the “Plasma (% AUC relative to TRA); share of circulating radioactivity” value is recorded as 2.4% and the “% of dose excreted, urine” value is reported as 2.0 % of dose. Further, the Tmax (male, human, plasma, radiochromatography, single oral 20-mg dose, median and range) amounted to 2.5 h. Besides, under setting [1], the “Plasma Cmax” value was found to be 7.5±6.8 ngEq/mL. In addition, the “Plasma AUC0-t” value under setting [2] is listed as 133±125 ngEq*h/mL.
Regarding `CCOc1cc([C@@H](CS(C)(=O)=O)NC(=O)c2cccc(NC(C)=O)c2C(=O)O)ccc1OC1OC(C(=O)O)C(O)C(O)C1O` (some centres unmarked) [Metabolite M15], the “% of dose excreted, urine” value is given as 3.3 % of dose.
Turning to `CC(=O)Nc1cccc(C(=O)O)c1C(=O)O` [Metabolite M18, 3-acetamide-phthalic acid], the “% of dose excreted, faeces” value is reported as 1.4 % of dose.
Regarding `CC(=O)Nc1cccc2c1C(=O)N([C@H](CS(C)(=O)=O)c1ccc(O)c(O)c1)C2=O` [Metabolite M19, O-desmethyl, O-desethyl apremilast], the “% of dose excreted, faeces” value is given as 0.8 % of dose.
Same read-out and setting: to `CS(=O)(=O)C[C@H](c1ccc(O)c(O)c1)N1C(=O)c2cccc(N)c2C1=O` [Metabolite M20, N-deacetylated, O-desmethyl, O-desethyl apremilast] belongs 0.5 % of dose; to `COc1ccc([C@@H](CS(C)(=O)=O)NC(=O)c2cccc(NC(C)=O)c2C(=O)O)cc1O` [Metabolite M22], 0.6 % of dose; to `O=C(CO)Nc1cccc(C(=O)O)c1C(=O)O` [Metabolite M23, hydroxy 3-acetamide-phthalic acid], 3.0 % of dose.
For the molecule “hydroxylated N-deacetylated apremilast [Metabolite M11]”, the “Plasma (% AUC relative to TRA); share of circulating radioactivity” value was found to be 2.5% and the “% of dose excreted, faeces” value is 1.4 % of dose. Besides, the “Plasma Cmax” value under setting [1] is listed as 20.2±7.6 ngEq/mL. Further, under setting [2], the “Plasma AUC0-t” value came out at 139±89 ngEq*h/mL, the “Plasma AUC0-∞” value was 232±151 ngEq*h/mL and the “Plasma t½” value was found to be 10.7 ± 10.2 h. In addition, the “Plasma Tmax” value (radiochromatography, single oral 20-mg dose, median and range) is given as 1.0(0.5-2.5) h.
As for “hydroxylated N-deacetylated, O-desmethyl apremilast [Metabolite M8]”, the “% of dose excreted, faeces” value is recorded as 1.0 % of dose.
